The record followed here is patent publication US5444056A, “Aminoalkoxyphenyl derivatives, process for their preparation and compositions containing them” (Sanofi, priority 1989, dated 1995).

The experiment concerns contractile response to potassium-induced depolarization on isolated rat aorta. As to the kind of experiment: Calcium inhibitory properties: antagonism of contractile response to potassium-induced depolarization on isolated rat aorta. Also on record: species or system rat (male Wistar). The note with it: percent of maximal contraction before incubation, 60 min. The source says: It is well established that the depolarization of a smooth muscle membrane by potassium makes the latter permeable to extracellular calcium and induces muscle contraction. Consequently, the measurement of inhibition of the contractile response to depolarization by potassium or the measurement of relaxation of the tonic contraction on potassium depolarization can provide an evaluation of the potency of a compound as an inhibitor of the membrane permeability to Ca^++ ions. The technique used is the following: The aorta is removed from male Wistar rats weighing about 300 g and cut into strips approximately 40 mm long and 3 mm wide. These fragments are placed in a 25 ml isolated organ bath containing modified Krebs-bicarbonate solution (112 mM NaCL; 5 mM KCl; 25 mM NaHCO3; 1 mM KH2 PO4; 1.2 mM MgSO4; 2.5 mM CaCl2; 11.5 mM glucose, made up to 1000 ml with distilled water) maintained at 37° C. and through which a stream of carbon dioxide is passed. The preparation is connected to a force microsensor and the contractile response is recorded after amplification on a recorder. A tension of 2g is applied to the preparation. This latter is maintained in the modified Krebs-bicarbonate solution for 60 minutes, and then contractions are induced by replacing the Krebsbi-carbonate solution by a Krebs-potassium solution (17 mM NaCl; 100 mM KCl; 25 mM NaHCO3; 1 mM KH2 PO4; 1.2 mM MgSO4; 2.5 mM CaCl2; 11.5 mM glucose; made up to 1000 ml with distilled water). When the contractile response of the preparation has become reproducible, a given amount of the compound of the invention is introduced into the bath. Sixty minutes later a new spasm is induced by potassium depolarization. The results obtained on the aorta under investigation are then expressed in percent of the maximal contractional effect before incubation with the test substance. As examples, the following results were obtained, the compounds of formula (1) being in the form of the free base, the hydrochloride, oxalate or fumarate.

SMILES strings stand for the structures. Structures can show the parent of a compound that is named as a salt.

`COc1ccc2[nH]c(C)c(Sc3ccc(OCCCN(C)CCc4ccc(OC)c(OC)c4)cc3)c2c1` [Ex. 9, 3-{4-[3-(N-methyl N-3,4-dimethoxy-β-phenethylamino)propoxy]phenylthio} 5-methoxy 2-methyl indole hydrogen oxalate]: the “% maximal contractional effect” value is reported as 70,4% (10^-7 M, 0.1 µM); 84,4% (10^-8 M, 0.01 µM); 88% (10^-9 M, 0.001 µM).
With `CCCCc1oc2ccc(Cl)cc2c1S(=O)(=O)c1cc(Br)c(OCCCN(C)CCc2ccc(OC)c(OC)c2)c(Br)c1` [Ex. 7, 5-chloro 2-n-butyl 3-{4-[3-(N-methyl N-3,4-dimethoxy-β-phenethylamino)propoxy] 3,5-dibromobenzenesulfonyl}benzofuran hydrogen oxalate], the “% maximal contractional effect” value reads like this: (10^-6 M, 1 µM) 80,3%; (10^-7 M, 0.1 µM) 76,8%.
On to `CCc1nn2cccc(C)c2c1S(=O)(=O)c1ccc(OCCCN(C)CCc2ccc(OC)c(OC)c2)cc1` [Ex. 78, 3-{4-[3-(N-methyl N-3,4-dimethoxy-β-phenethylamino)propoxy]benezenesulfonyl} 2-ethyl 4-methyl pyrazolo[1,5-a]pyridine hydrogen oxalate], for which the “% maximal contractional effect” value is recorded as 17,5% (10^-8 M, 0.01 µM); 72,9% (10^-9 M, 0.001 µM); 78,6% (10^-10 M, 0.0001 µM).
For `CCc1nn2cc(C)ccc2c1S(=O)(=O)c1ccc(OCCCN(C)CCc2ccc(OC)c(OC)c2)cc1` [Ex. 81, 3-{4-[3-(N-methyl N-3,4-dimethoxy-β-phenethylamino)propoxy]benzenesulfonyl} 2-ethyl 6-methyl pyrazolo[1,5-a]pyridine hydrogen oxalate] the same measures were 78,1%, 85,3% and 91,4%.
In the case of `CCN(CC)CCn1c(C(C)C)c(S(=O)(=O)c2ccc(OCCCN(C)CCc3ccc(OC)c(OC)c3)cc2)c2ccccc21` [Ex. 12, 3-{4-[3-(N-methyl N-3,4-dimethoxy-β-phenethylamino)propoxy]benzenesulfonyl} 1-diethylaminoethyl 2-isopropyl indole dioxalate], the “% maximal contractional effect” value (10^-7 M, 0.1 µM) was 74,9%; the “% maximal contractional effect” value (10^-8 M, 0.01 µM) is reported as 84,5%; the “% maximal contractional effect” value (10^-9 M, 0.001 µM) was 90,4%.
Taken in the same sequence, the figures for `COc1ccc(CCN(C)CCCOc2ccc(S(=O)(=O)c3c(C(C)C)n(C)c4cc(C)ccc34)cc2)cc1OC` [Ex. 45, 1-methyl 2-isopropyl 3-{4-[3-(N-methyl N-3,4-dimethoxy-β-phenethylamino)propoxy]benzenesulfony} 6-methyl indole hydrogen oxalate] were 15,7%, 75,2% and 83,2%.
On to `CCCCN(CCCC)CCCOc1ccc(S(=O)(=O)c2c(C)nn3c(C)cccc23)cc1` [Ex. 48, 3-{4-[3-(di-n-butylamino)propoxy]benzenesulfonyl} 2,7 dimethyl pyrazolo[1,5-]pyridine hydrogen oxalate], for which the “% maximal contractional effect” value (10^-8 M, 0.01 µM) is recorded as 77,1% and the “% maximal contractional effect” value (10^-9 M, 0.001 µM) is 85,7%.
`COc1ccc2c(c1)c(C(C)C)c(S(=O)(=O)c1ccc(OCCCN(C)CCc3ccc(OC)c(OC)c3)cc1)n2CCCN(C)CCc1ccc(OC)c(OC)c1` [Ex. 63, 2-{4-[3-(N-methyl N-3,4-dimethoxy-β-phenethylamino)propoxy]benzenesulfonyl} 1-[3-(N-methyl N-3,4-dimethoxy-β-phenethylamino)propyl] 3-isopropyl 5-methoxy indole oxalate]: the “% maximal contractional effect” value is, setting by setting: (10^-7 M, 0.1 µM) 69,7%; (10^-8 M, 0.01 µM) 82,8%; (10^-9 M, 0.001 µM) 90,8%.
Regarding `CCCCN(CCCC)CCCOc1ccc(S(=O)(=O)c2c(C(C)C)n(C)c3cc(C)ccc23)cc1.O=C(O)C(=O)O` [Ex. 46, 1-methyl 2-isopropyl 3-{4-[3-(di-n-butylamino)propoxy]benzenesulfonyl} 6-methyl indole hydrogen oxalate], the “% maximal contractional effect” value runs as follows: (10^-7 M, 0.1 µM) 41,7%; (10^-8 M, 0.01 µM) 67,2%; (10^-9 M, 0.001 µM) 79,5%.
